Assay results published in patent publication US20200331882A1, “COMPOUND FOR SIMULTANEOUSLY INHIBITING LSD1 AND HDAC TARGETS AND APPLICATION THEREOF” (PEKING UNIVERSITY SHENZHEN GRADUATE SCHOOL, priority 2018, published 2020).
Read-outs that look alike come from different tables or passages of the source.

What was measured:
Assay in all cases: CellTiter-Glo cell proliferation
Format in all cases: cell-based
143B = details: CTG, 72 hours; for % inhibition at top conc.: highest concentration 10/50 μM; for IC50: read-out: Absolute IC50
Experimental: (§1) The effect of the present invention compound ZZY-003 on the cell proliferation of 50 cell lines was evaluated by CellTiter-Glo (CTG) method, and the 50% inhibitory concentration was calculated by detecting the cell viability after treatment with different drug concentrations. The cells were resuscitated and cultured in their respective culture media. The cells in logarithmic growth phase were harvested and the cells were counted by cell counter. The cell viability was detected by Trypan blue exclusion method to ensure that the cell line viability was more than 96%. The cell concentration was adjusted by diluting with the culture medium, and 90 μL cell suspension was added to the 96-well cell plate (including the cell control T0 on the day of drug treatment) to make the cell density reach the specified concentration. The cells in the 96-well plate were cultured overnight at 37° C., 5% CO2 and 95% humidity. 10 μL culture medium was added to the control cell culture plate. CellTiter-Glo reagent and cell culture plate were placed at room temperature to balance for 30 minutes. The same volume of CellTiter-Glo reagent was added to each well. Vibrate on the orbital shaker for 2 min to make the cells fully lytic. The cell culture plate was placed at room temperature to balance for 10 minutes. Chemiluminescence values were read with EnVision. The storage solution was formed by dissolving the tested compound with the corresponding solvent and diluted in gradient to obtain 10 times working concentration solution, and 10 times solution of positive drug was also prepared. 10 μL drug solution was added to each well in the 96-well plate in which the cells were inoculated, and each cell concentration was provided with three duplicate wells. The highest concentration of the tested compound was 10/50 μM, 9 concentrations and 3.16 times dilution. The cells in the 96-well plate added with drug were cultured at 37° C., 5% CO2 and 95% humidity for 72 hours. CellTiter-Glo reagent and drug-treated cell culture plate were placed at room temperature to balance for 30 minutes. The same volume of CellTiter-Glo reagent was added to each well. Vibrate on the orbital shaker for 2 minutes to make the cells fully lytic. The cell culture plate was placed at room temperature to balance for 10 minutes. Chemiluminescence values were read with EnVision. Data processing: […] Cell survival rate (%)=(Lum drug to be detected−Lum culture medium control)/(Lum cell control−Lum culture medium control)×100%; Lum cell control−Lum culture medium control was set to 100%, LumMedium control value was set to 0%;

5637 = details: CTG, 72 hours; for % inhibition at top conc.: highest concentration 10/50 μM; for IC50: read-out: Absolute IC50
Experimental: as §1

786-O = details: 72 hours; for % inhibition at top conc.: highest concentration 10/50 μM; for IC50: read-out: Absolute IC50
Experimental: as §1

AN3 CA = details: CTG, 72 hours; for % inhibition at top conc.: highest concentration 10/50 μM; for IC50: read-out: Absolute IC50
Experimental: as §1

AZ-521 = details: CTG, 72 hours; for % inhibition at top conc.: highest concentration 10/50 μM; for IC50: read-out: Absolute IC50
Experimental: as §1

B16-F10 = details: CTG, 72 hours; for % inhibition at top conc.: highest concentration 10/50 μM; for IC50: read-out: Absolute IC50
Experimental: as §1

BT474 = details: 72 hours; for % inhibition at top conc.: highest concentration 10/50 μM; for IC50: read-out: Absolute IC50
Experimental: as §1

EBC-1 = details: CTG, 72 hours; for % inhibition at top conc.: highest concentration 10/50 μM; for IC50: read-out: Absolute IC50
Experimental: as §1

HT-1376 = details: CTG, 72 hours; for % inhibition at top conc.: highest concentration 10/50 μM; for IC50: read-out: Absolute IC50
Experimental: as §1

HeLa = details: CTG, 72 hours; for % inhibition at top conc.: highest concentration 10/50 μM; for IC50: read-out: Absolute IC50
Experimental: as §1

Hep G2 = details: 72 hours; for % inhibition at top conc.: highest concentration 10/50 μM; for IC50: read-out: Absolute IC50
Experimental: as §1

HuCCT1 = details: 72 hours; for % inhibition at top conc.: highest concentration 10/50 μM; for IC50: read-out: Absolute IC50
Experimental: as §1

JVM-3 = details: CTG, 72 hours; for % inhibition at top conc.: highest concentration 10/50 μM; for IC50: read-out: Absolute IC50
Experimental: as §1

Jurkat clone E6-1 = details: CTG, 72 hours; for % inhibition at top conc.: highest concentration 10/50 μM; for IC50: read-out: Absolute IC50
Experimental: as §1

K-562 = details: 72 hours; for % inhibition at top conc.: highest concentration 10/50 μM; for IC50: read-out: Absolute IC50
Experimental: as §1

LP-1 = details: CTG, 72 hours; for % inhibition at top conc.: highest concentration 10/50 μM; for IC50: read-out: Absolute IC50
Experimental: as §1

MCF7 = details: CTG, 72 hours; for % inhibition at top conc.: highest concentration 10/50 μM
Experimental: as §1

MIA PaCa-2 = details: CTG, 72 hours; for % inhibition at top conc.: highest concentration 10/50 μM; for IC50: read-out: Absolute IC50
Experimental: as §1

NCI-H1417 = details: CTG, 72 hours; for % inhibition at top conc.: highest concentration 10/50 μM; for IC50: read-out: Absolute IC50
Experimental: as §1

OPM2 = details: 72 hours; for % inhibition at top conc.: highest concentration 10/50 μM; for IC50: read-out: Absolute IC50
Experimental: as §1

PANC-1 = details: CTG, 72 hours; for % inhibition at top conc.: highest concentration 10/50 μM; for IC50: read-out: Absolute IC50
Experimental: as §1

Ramos = details: CTG, 72 hours; for % inhibition at top conc.: highest concentration 10/50 μM; for IC50: read-out: Absolute IC50
Experimental: as §1

SK-MEL-28 = details: CTG, 72 hours; for % inhibition at top conc.: highest concentration 10/50 μM; for IC50: read-out: Absolute IC50
Experimental: as §1

SK-OV-3 = details: CTG, 72 hours; for % inhibition at top conc.: highest concentration 10/50 μM; for IC50: read-out: Absolute IC50
Experimental: as §1

SNU-5 = details: CTG, 72 hours; for % inhibition at top conc.: highest concentration 10/50 μM; for IC50: read-out: Absolute IC50
Experimental: as §1

SU-DHL-6 = details: CTG, 72 hours; for % inhibition at top conc.: highest concentration 10/50 μM; for IC50: read-out: Absolute IC50
Experimental: as §1

SW480 = details: CTG, 72 hours; for % inhibition at top conc.: highest concentration 10/50 μM; for IC50: read-out: Absolute IC50
Experimental: as §1

U-937 = details: CTG, 72 hours; for % inhibition at top conc.: highest concentration 10/50 μM; for IC50: read-out: Absolute IC50
Experimental: as §1

UO.31 = details: CTG, 72 hours; for % inhibition at top conc.: highest concentration 10/50 μM; for IC50: read-out: Absolute IC50
Experimental: as §1

N.N.[Cl][Pt][Cl] [Cisplatin, reference compound]
% inhibition at top conc. (143B): 99.94% | IC50 (143B): 1150 nM | % inhibition at top conc. 5637: 99.05% | IC50 5637: 2600 nM | % inhibition at top conc. (786-O; CTG): 97.88% | IC50 (786-O; CTG): 2110 nM | % inhibition at top conc. (AN3 CA): 99.96% | IC50 (AN3 CA): 4430 nM | % inhibition at top conc. (AZ-521): 99.92% | IC50 (AZ-521): 2890 nM | % inhibition at top conc. (B16-F10): 99.97% | IC50 (B16-F10): 4530 nM | % inhibition at top conc. (BT474; CTG): 67.02% | IC50 (BT474; CTG): 66100 nM | % inhibition at top conc. (EBC-1): 85.11% | IC50 (EBC-1): 17800 nM | % inhibition at top conc. (HT-1376): 88.74% | IC50 (HT-1376): 4100 nM | % inhibition at top conc. (HeLa): 99.45% | IC50 (HeLa): 370 nM | % inhibition at top conc. (Hep G2; CTG): 90.70% | IC50 (Hep G2; CTG): 5860 nM | % inhibition at top conc. (HuCCT1; CTG): 89.54% | IC50 (HuCCT1; CTG): 11300 nM | % inhibition at top conc. (JVM-3): 99.71% | IC50 (JVM-3): 700 nM | % inhibition at top conc. (Jurkat clone E6-1): 99.96% | IC50 (Jurkat clone E6-1): 840 nM | % inhibition at top conc. (K-562; CTG): 97.45% | IC50 (K-562; CTG): 6070 nM | % inhibition at top conc. (LP-1): 99.89% | IC50 (LP-1): 8680 nM | % inhibition at top conc. (MCF7): 90.30% | % inhibition at top conc. (MIA PaCa-2): 99.18% | IC50 (MIA PaCa-2): 6050 nM | % inhibition at top conc. (NCI-H1417): 81.11% | IC50 (NCI-H1417): 4400 nM | % inhibition at top conc. (OPM2; CTG): 99.97% | IC50 (OPM2; CTG): 3670 nM | % inhibition at top conc. (PANC-1): 94.45% | IC50 (PANC-1): 8670 nM | % inhibition at top conc. (Ramos): 99.98% | IC50 (Ramos): 1780 nM | % inhibition at top conc. (SK-MEL-28): 99.34% | IC50 (SK-MEL-28): 8610 nM | % inhibition at top conc. (SK-OV-3): 89.16% | IC50 (SK-OV-3): 5170 nM | % inhibition at top conc. (SNU-5): 97.87% | IC50 (SNU-5): 2450 nM | % inhibition at top conc. (SU-DHL-6): 99.95% | IC50 (SU-DHL-6): 5650 nM | % inhibition at top conc. (SW480): 94.12% | IC50 (SW480): 2690 nM | % inhibition at top conc. (U-937): 99.97% | IC50 (U-937): 2190 nM | % inhibition at top conc. (UO.31): 97.89% | IC50 (UO.31): 4230 nM

Cc1ccc(C(=O)Nc2cc(N3CCNCC3)ccc2-c2ccc(/C=C/C(=O)NO)cc2C)cc1.Cl [ZZY-003]
% inhibition at top conc. (143B): 99.97% | IC50 (143B; Homo sapiens): 2250 nM | % inhibition at top conc. 5637: 99.95% | IC50 5637: 820 nM | % inhibition at top conc. (786-O; CTG): 99.96% | IC50 (786-O; Homo sapiens, 786-0, CTG): 3910 nM | % inhibition at top conc. (AN3 CA): 99.92% | IC50 (AN3 CA; Homo sapiens): 1270 nM | % inhibition at top conc. (AZ-521): 99.95% | IC50 (AZ-521; Homo sapiens): 680 nM | % inhibition at top conc. (B16-F10): 99.98% | IC50 (B16-F10; Mus musculus): 1030 nM | % inhibition at top conc. (BT474; CTG): 99.86% | IC50 (BT474; Homo sapiens, BT-474, CTG): 510 nM | % inhibition at top conc. (EBC-1): 92.30% | IC50 (EBC-1; Homo sapiens): 1150 nM | % inhibition at top conc. (HT-1376): 99.41% | IC50 (HT-1376; Homo sapiens): 2280 nM | % inhibition at top conc. (HeLa): 98.88% | IC50 (HeLa; Homo sapiens): 1400 nM | % inhibition at top conc. (Hep G2; CTG): 99.98% | IC50 (Hep G2; Homo sapiens, HepG2, CTG): 840 nM | % inhibition at top conc. (HuCCT1; CTG): 99.88% | IC50 (HuCCT1; Homo sapiens, HuCCT-1, CTG): 1350 nM | % inhibition at top conc. (JVM-3): 99.48% | IC50 (JVM-3; Homo sapiens): 350 nM | % inhibition at top conc. (Jurkat clone E6-1): 99.61% | IC50 (Jurkat clone E6-1; Homo sapiens): 480 nM | % inhibition at top conc. (K-562; CTG): 99.85% | IC50 (K-562; Homo sapiens, K562, CTG): 460 nM | % inhibition at top conc. (LP-1): 98.94% | IC50 (LP-1; Homo sapiens): 260 nM | % inhibition at top conc. (MCF7): 96.26% | IC50 (MCF7; Homo sapiens, read-out: Absolute IC50): 1610 nM | % inhibition at top conc. (MIA PaCa-2): 99.94% | IC50 (MIA PaCa-2; Homo sapiens): 480 nM | % inhibition at top conc. (NCI-H1417): 97.14% | IC50 (NCI-H1417; Homo sapiens): 330 nM | % inhibition at top conc. (OPM2; CTG): 98.99% | IC50 (OPM2; Homo sapiens, OPM-2, CTG): 350 nM | % inhibition at top conc. (PANC-1): 96.79% | IC50 (PANC-1; Homo sapiens): 5840 nM | % inhibition at top conc. (Ramos): 99.82% | IC50 (Ramos; Homo sapiens): 320 nM | % inhibition at top conc. (SK-MEL-28): 99.89% | IC50 (SK-MEL-28; Homo sapiens): 1240 nM | % inhibition at top conc. (SK-OV-3): 99.68% | IC50 (SK-OV-3; Homo sapiens): 1590 nM | % inhibition at top conc. (SNU-5): 99.83% | IC50 (SNU-5; Homo sapiens): 1640 nM | % inhibition at top conc. (SU-DHL-6): 99.91% | IC50 (SU-DHL-6; Homo sapiens): 300 nM | % inhibition at top conc. (SW480): 99.24% | IC50 (SW480; Homo sapiens): 1740 nM | % inhibition at top conc. (U-937): 99.99% | IC50 (U-937; Homo sapiens): 460 nM | % inhibition at top conc. (UO.31): 99.92% | IC50 (UO.31; Homo sapiens): 4560 nM
